ChEMBL document CHEMBL1154526, “Novel non-active site inhibitor of Cryptosporidium hominis TS-DHFR identified by a virtual screen” (Bioorg Med Chem Lett, 2009)
Where a chain is given by its changes, count along the chain named. Blank lines part the entries; values can stand above or below the compound they belong to.

Assays:
[1] = Inhibition of Cryptosporidium hominis TS-DHFR by spectroscopic assay
[2] = biological target: T1, Bifunctional dihydrofolate reductase-thymidylate synthase (Toxoplasma gondii, UniProt Q07422); assay: Inhibition of Toxoplasma gondii TS-DHFR
T1 sequence (Q07422 whole entry): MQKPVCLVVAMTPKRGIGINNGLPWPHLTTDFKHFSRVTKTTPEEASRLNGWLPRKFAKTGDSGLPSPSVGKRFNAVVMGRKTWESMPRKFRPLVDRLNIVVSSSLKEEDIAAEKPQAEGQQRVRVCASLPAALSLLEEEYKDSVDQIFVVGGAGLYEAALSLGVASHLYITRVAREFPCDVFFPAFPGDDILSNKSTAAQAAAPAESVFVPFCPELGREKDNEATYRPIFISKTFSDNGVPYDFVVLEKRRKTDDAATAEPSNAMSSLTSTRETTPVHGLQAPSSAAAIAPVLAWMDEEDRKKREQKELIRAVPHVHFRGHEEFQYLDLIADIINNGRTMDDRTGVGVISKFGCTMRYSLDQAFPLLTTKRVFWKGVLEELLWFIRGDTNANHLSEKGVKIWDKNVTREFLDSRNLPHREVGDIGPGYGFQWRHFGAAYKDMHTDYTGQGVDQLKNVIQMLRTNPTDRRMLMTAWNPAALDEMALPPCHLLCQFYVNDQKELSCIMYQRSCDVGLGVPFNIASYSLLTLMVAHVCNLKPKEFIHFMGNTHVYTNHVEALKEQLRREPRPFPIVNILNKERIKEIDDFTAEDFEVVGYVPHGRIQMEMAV

[3] = Inhibition of Cryptosporidium hominis 80 to 250 nM TS-DHFR by spectroscopic assay
[4] = tested on: T2, Dihydrofolate reductase (Cryptosporidium hominis), Q27552 [R190G]; assay: Inhibition of Cryptosporidium hominis DHFR R190G mutant; parameters: scale not given: the % may be the effect or the level left
T2 sequence (whole entry): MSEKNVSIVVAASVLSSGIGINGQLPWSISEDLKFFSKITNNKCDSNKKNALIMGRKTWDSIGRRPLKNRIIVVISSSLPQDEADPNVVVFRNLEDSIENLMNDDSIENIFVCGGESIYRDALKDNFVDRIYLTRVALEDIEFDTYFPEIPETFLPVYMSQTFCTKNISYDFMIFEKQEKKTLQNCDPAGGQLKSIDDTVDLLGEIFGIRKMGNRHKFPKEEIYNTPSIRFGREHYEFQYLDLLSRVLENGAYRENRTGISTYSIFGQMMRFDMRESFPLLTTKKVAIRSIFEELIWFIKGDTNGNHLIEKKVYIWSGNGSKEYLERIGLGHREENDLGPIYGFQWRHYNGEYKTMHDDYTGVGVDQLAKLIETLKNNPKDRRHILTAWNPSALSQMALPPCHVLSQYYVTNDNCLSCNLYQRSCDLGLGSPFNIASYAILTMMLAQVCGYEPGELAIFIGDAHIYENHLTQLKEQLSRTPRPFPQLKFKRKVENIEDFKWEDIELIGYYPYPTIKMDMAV

[5] = Binding affinity to Cryptosporidium hominis TS-DHFR by burst amplitude assay
Cryptosporidium hominis [6] = conditions: 200 uM
Description: Activity at Cryptosporidium hominis DHFR at 200 uM using NADPH substrate by steady state competition assay

[7] = tested on: T3, Dihydrofolate reductase (Cryptosporidium hominis), Q27552 [D201A]; assay: Inhibition of Cryptosporidium hominis DHFR D201A mutant; parameters: scale not given: the % may be the effect or the level left
T3 sequence (whole entry): T2 sequence (whole entry) with G190R, D201A

Thymidylate synthase = Thymidylate synthase (Homo sapiens, UniProt P04818); assay: Inhibition of human thymidylate synthase
Dihydrofolate reductase = biological target: T4, Dihydrofolate reductase (Homo sapiens, UniProt P00374); assay: Inhibition of human DHFR
T4 sequence (P00374 whole entry): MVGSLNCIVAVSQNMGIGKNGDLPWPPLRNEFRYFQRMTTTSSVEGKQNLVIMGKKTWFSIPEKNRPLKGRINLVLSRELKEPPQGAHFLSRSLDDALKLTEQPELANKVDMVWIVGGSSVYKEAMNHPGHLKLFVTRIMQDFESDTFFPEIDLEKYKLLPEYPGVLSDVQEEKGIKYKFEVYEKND

Cryptosporidium hominis [8] = conditions: 200 uM; remark: listed apart in the source
Description: Activity at Cryptosporidium hominis DHFR at 200 uM using dihydrofolate substrate by steady state competition assay

Sequence of Thymidylate synthase (P04818 whole entry): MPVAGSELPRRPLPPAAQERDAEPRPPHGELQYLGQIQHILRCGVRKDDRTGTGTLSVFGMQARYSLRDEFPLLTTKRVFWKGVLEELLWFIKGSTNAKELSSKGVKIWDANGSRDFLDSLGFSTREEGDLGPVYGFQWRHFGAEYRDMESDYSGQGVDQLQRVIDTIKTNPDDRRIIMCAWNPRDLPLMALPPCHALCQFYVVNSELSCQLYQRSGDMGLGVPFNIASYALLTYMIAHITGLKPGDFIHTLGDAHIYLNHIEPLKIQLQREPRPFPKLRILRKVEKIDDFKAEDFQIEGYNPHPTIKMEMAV

SMILES: COc1cccc2c1C(=O)C1=C(C2=O)C(O)C2=C(C1O)[C@@H](C[C@@H]1C[C@H](N)[C@@H](O)[C@H](C)O1)C[C@@](O)(/C(C)=N/NC(=O)c1ccccc1)C2 (some centres not stated) [RUBIDAZONE]
IC50 [1]: > 500 µM

SMILES: COC1=C(N)C(=O)c2nc(-c3nc(C(=O)O)c(C)c(-c4ccc(OC)c(OC)c4O)c3N)ccc2C1=O [STREPTONIGRIN]
IC50 [1]: 80 µM

IC50 [1]: > 500 µM
SMILES: CC(=O)N[C@@H]1[C@@H](O)[C@H](O[C@@H]2O[C@H](CO)[C@@H](O)[C@H](O)[C@H]2NC(C)=O)[C@@H](CO)O[C@H]1O [CHITODEXTRIN]

IC50 [1]: > 500 µM
SMILES: C[C@H]1O[C@@H](O[C@H]2[C@@H](O)C[C@H](O[C@H]3[C@@H](O)C[C@H](O[C@H]4CC[C@@]5(C)[C@H](CC[C@@H]6[C@@H]5C[C@@H](O)[C@]5(C)[C@@H](C7=CC(=O)OC7)CC[C@]65O)C4)O[C@@H]3C)O[C@@H]2C)C[C@H](O)[C@@H]1O [DIGOXIN]

SMILES: Cc1cc2nc3c(=O)[nH]c(=O)nc-3n(C[C@H](O)[C@H](O)[C@H](O)COP(=O)(O)O)c2cc1C [RIBOFLAVIN 5'-PHOSPHATE]
IC50 [2]: > 500 µM
IC50 [3]: 55 µM
Activity [4]: 20%
Kd [5]: 48 µM
Km (Cryptosporidium hominis [6]): 3 µM
Vmax (Cryptosporidium hominis [6]): 1.77 µmol/min
IC50 [1]: 55 µM
Activity [7]: 10%
IC50 (Thymidylate synthase): > 500 µM
IC50 (Dihydrofolate reductase): 325 µM
Km (Cryptosporidium hominis [8]): 7.2 µM
Vmax (Cryptosporidium hominis [8]): 1.8 µmol/min

SMILES: CC(=O)N1CCN(c2ccc(OCC3COC(Cn4ccnc4)(c4ccc(Cl)cc4Cl)O3)cc2)CC1 (configuration not stated) [KETOCONAZOLE]
IC50 [1]: > 500 µM
